The term MIC denotes the lowest concentration found to suppress growth.

In brackets after ≈: the same amount, converted by molar mass. Several values for one entry are separate records, joined by “and”; a condition that tells them apart may be missing. Equal entries are not always repeated.

This note sets out measurements from DBAASP.

Among the test systems are Escherichia coli O157; Listeria monocytogenes; Salmonella typhimurium; Candida albicans MDM8; Escherichia coli SBS 363; Micrococcus luteus A270.
Common to all, as to assay: ≥ marks a high value that may be exact or a test limit, other limits are often not marked, values filed in µg/mL are converted to µM
The test system of assay [1] is Acinetobacter baumannii ATCC 17978.
Assay [2] concerns Candida albicans ATCC 90028.
The subject of assay [3] is Escherichia coli NCTC 12923.
In assay [4] the test system is Klebsiella pneumoniae NCTC 13368.
For assay [5], the system named is Pseudomonas aeruginosa PAO1.
Assay [6] has as its system Staphylococcus aureus ATCC 9144.
The subject of assay [7] is Staphylococcus aureus USA 300.
For assay [8], the system named is Escherichia coli ATCC 25404.
Assay [9] has as its system Escherichia coli DH5alpha.
Assay [10] relates to Klebsiella pneumoniae ATCC 10031.
Assay [11] deals with Micrococcus luteus ATCC 10420.
Assay [12] concerns Micrococcus luteus ATCC 4698.
The test system of assay [13] is Salmonella enterica subsp. enterica serovar Typhimurium ATCC 14028.
The subject of assay [14] is Staphylococcus aureus ATCC 29213.
The test system of assay [15] is Staphylococcus aureus ATCC 43300.
The test system of assay [16] is Staphylococcus aureus ATCC 6538.
The subject of assay [17] is Staphylococcus epidermidis ATCC 12228.
In assay [18] the test system is Staphylococcus epidermidis ATCC 9709.
The test system of assay [19] is Bacillus subtilis DSM 347.
Assay [20] has as its system Escherichia coli DSM 1116.
Assay [21] has as its system Franconibacter helveticus DSM 18390.
The subject of assay [22] is Staphylococcus xylosus DSM 20287.
For assay [23], the system named is Bacillus megaterium ATCC 10778.
Assay [24] deals with Bacillus subtilis ATCC 6633.
Assay [25] has as its system Candida tropicalis IOC 4560.
Assay [26] deals with Enterobacter cloacae beta-12.
The subject of assay [27] is Pseudomonas aeruginosa NCIB 10421.
The subject of assay [28] is Serratia marcescens ATCC 4112.

As to `C[C@H](NC(=O)CNC(=O)[C@H](CCCCN)NC(=O)[C@@H](N)CS)C(=O)N[C@@H](Cc1ccccc1)C(=O)N[C@@H](CCCCN)C(=O)N[C@@H](CCC(N)=O)C(=O)N[C@H](C(=O)N[C@@H](CS)C(=O)N[C@@H](CCCCN)C(=O)N[C@@H](CS)C(=O)N[C@@H](Cc1ccc(O)cc1)C(N)=O)[C@@H](C)O` [CKGAFKQTCKCY], the MIC in assay [1] was not below 92.8 µM; in [2] it was 4.4 µM (≈ 6.07 µg/mL); in assay [3], not below 92.8 µM; in assay [4] it was not below 92.8 µM; in assay [5], more than 92.8 µM; in assay [6] it was not below 92.8 µM. Further, the MIC in [7] was not below 92.8 µM.

`CC(C)C[C@H](NC(=O)[C@H](CC(C)C)NC(=O)[C@H](CCCCN)NC(=O)[C@H](CO)NC(=O)[C@H](CC(C)C)NC(=O)[C@H](C)NC(=O)[C@H](CCCCN)NC(=O)[C@H](Cc1ccccc1)NC(=O)[C@H](CC(C)C)NC(=O)[C@H](C)NC(=O)CNC(=O)[C@H](CC(C)C)NC(=O)[C@@H](N)Cc1ccccc1)C(=O)O` [FLGALFKALSKLL]: the MIC was not below 64 µM in assay [8]; not below 98.5 µM in assay [9]; not below 64 µM in the assay with Escherichia coli O157; 17.6 µM (≈ 25 µg/mL) in assay [10]; 2 µM (≈ 2.84 µg/mL) in the assay with Listeria monocytogenes; 2 µM (≈ 2.84 µg/mL) in assay [11]. Besides, the MIC was 2.11 µM (≈ 3 µg/mL) in [12]; more than 70.4 µM in assay [13]; not below 64 µM in the assay on Salmonella typhimurium; 4 µM and > 2 µM in assay [14]; 4 µM (≈ 5.68 µg/mL) in assay [15]; 3.52 µM (≈ 5 µg/mL) in assay [16]. In addition, the MIC in assay [17] worked out at 6.33 µM (≈ 9 µg/mL); in [18], 4 µM (≈ 5.68 µg/mL).

As to `CC[C@H](C)[C@H](N)C(=O)N[C@@H](C)C(=O)N[C@@H](CCCCN)C(=O)N[C@H](C(=O)N[C@@H](C)C(=O)NCC(=O)N[C@@H](CCCCN)C(=O)N[C@H](C(=O)N[C@@H](C)C(=O)N[C@@H](CCCCN)C(=O)N[C@H](C(=O)N[C@@H](C)C(=O)NCC(=O)N[C@@H](CCCCN)C(=O)N[C@H](C(=O)N[C@@H](C)C(=O)N[C@@H](CCCCN)C(=O)N[C@H](C(=O)N[C@@H](C)C(=O)NCC(=O)N[C@@H](CCCCN)C(=O)N[C@H](C(=O)N[C@@H](C)C(N)=O)[C@@H](C)CC)[C@@H](C)CC)[C@@H](C)CC)[C@@H](C)CC)[C@@H](C)CC)[C@@H](C)CC` [IAKIAGKIAKIAGKIAKIAGKIA], the MIC in assay [19] was 0.89 µM (≈ 2 µg/mL); in [20], 1.78 µM (≈ 4 µg/mL); in assay [21], 1.26 µM (≈ 2.83 µg/mL); in assay [22] it was 0.89 µM (≈ 2 µg/mL).

`CC[C@H](C)[C@H](N)C(=O)N[C@@H](C)C(=O)N[C@@H](CCCCN)C(=O)N[C@H](C(=O)N[C@@H](C)C(=O)NCC(=O)N[C@@H](CCCCN)C(=O)N[C@H](C(=O)N[C@@H](C)C(=O)N[C@@H](CCCCN)C(=O)N[C@H](C(=O)N[C@@H](C)C(=O)NCC(=O)N[C@@H](CCCCN)C(=O)N[C@H](C(=O)N[C@@H](C)C(N)=O)[C@@H](C)CC)[C@@H](C)CC)[C@@H](C)CC)[C@@H](C)CC` [IAKIAGKIAKIAGKIA]: the MIC in assay [19] was 28.9 µM (≈ 45.2 µg/mL); in assay [20] it was not below 163 µM; in assay [21], not below 116 µM; in assay [22] it was not below 163 µM.

As to `CC[C@H](C)[C@H](N)C(=O)N[C@@H](CC(C)C)C(=O)NCC(=O)N[C@@H](CCCCN)C(=O)N[C@@H](Cc1ccccc1)C(=O)N[C@@H](Cc1c[nH]c2ccccc12)C(=O)N[C@@H](CCC(=O)O)C(=O)NCC(=O)N[C@H](C(=O)N[C@@H](CCCCN)C(=O)N[C@@H](CO)C(=O)N[C@@H](CC(C)C)C(=O)N[C@@H](Cc1ccccc1)C(N)=O)[C@@H](C)CC` [ILGKFWEGIKSLF], the MIC in assay [23] amounted to 0.78 µM (≈ 1.2 µg/mL); in assay [24], 0.78 µM (≈ 1.2 µg/mL); against Candida albicans MDM8 it was 3.13 µM (≈ 4.81 µg/mL); in assay [25] it was 1.56 µM (≈ 2.4 µg/mL); in assay [26], 12.5 µM (≈ 19.2 µg/mL); in the assay on Escherichia coli SBS 363 it was 3.13 µM (≈ 4.81 µg/mL). Moreover, the minimal inhibitory concentration (MIC) against Micrococcus luteus A270 amounted to 0.78 µM (≈ 1.2 µg/mL); in assay [27], 25 µM (≈ 38.4 µg/mL); in assay [28], 0.78 µM (≈ 1.2 µg/mL); in [14], 6.25 µM (≈ 9.61 µg/mL).

Regarding `CC[C@H](C)[C@H](N)C(=O)N[C@@H](CC(C)C)C(=O)N[C@@H](CC(C)C)C(=O)N[C@@H](CCCCN)C(=O)N[C@H](C(=O)N[C@@H](Cc1c[nH]c2ccccc12)C(=O)N[C@@H](CCC(=O)O)C(=O)NCC(=O)N[C@H](C(=O)N[C@@H](CCCCN)C(=O)N[C@@H](CO)C(=O)N[C@@H](CC(C)C)C(=O)N[C@@H](Cc1ccccc1)C(N)=O)[C@@H](C)CC)[C@@H](C)CC` [ILLKIWEGIKSLF], the MIC in assay [23] came to 0.78 µM (≈ 1.22 µg/mL); in assay [24], 0.78 µM (≈ 1.22 µg/mL); in the assay on Candida albicans MDM8, 3.13 µM (≈ 4.88 µg/mL); in assay [25] it was 3.13 µM (≈ 4.88 µg/mL); in assay [26] it was 12.5 µM (≈ 19.5 µg/mL); in the assay on Escherichia coli SBS 363, 0.78 µM (≈ 1.22 µg/mL). For the same molecule, the MIC against Micrococcus luteus A270 is 0.78 µM (≈ 1.22 µg/mL); in assay [27] it was not below 50 µM; in assay [28], 0.36 µM (≈ 0.561 µg/mL); in assay [14], 1.56 µM (≈ 2.43 µg/mL).
